Patent publication US20150307520A1, “NOVEL HETEROARYL AND HETEROCYCLE COMPOUNDS, COMPOSITIONS AND METHODS THEREOF” (HUTCHISON MEDIPHARMA LIMITED, priority 2012, published 2015)

Key:
Type in all cases: biochemical
p110δ/p85α = p110δ/p85α (Homo sapiens, UniProt O00329); test: Transcreener KINASE Assay, kinase inhibition of p110δ/p85α; details: for PI3Kδ IH % @ 1 uM: 1 uM test compound; for IC50: read-out: PI3Kδ IC50
Procedure, shortened: (§1)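 Steps: compound (2% DMSO final) plus enzyme in HEPES/NaCl/EGTA/CHAPS/3 mM MgCl2/1 mM DTT buffer; start with PIP2/ATP addition (30 uM/10 uM solution); 80 min RT; add ADP detection mix, 60 min RT; read fluorescence polarization.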

p110γ = p110γ (Homo sapiens, UniProt P48736); test: Transcreener KINASE Assay, kinase inhibition of p110γ; details: for PI3Kγ IH % @ 1 uM: 1 uM test compound; for IC50: read-out: PI3Kγ IC50
p110γ, sequence (P48736 whole entry): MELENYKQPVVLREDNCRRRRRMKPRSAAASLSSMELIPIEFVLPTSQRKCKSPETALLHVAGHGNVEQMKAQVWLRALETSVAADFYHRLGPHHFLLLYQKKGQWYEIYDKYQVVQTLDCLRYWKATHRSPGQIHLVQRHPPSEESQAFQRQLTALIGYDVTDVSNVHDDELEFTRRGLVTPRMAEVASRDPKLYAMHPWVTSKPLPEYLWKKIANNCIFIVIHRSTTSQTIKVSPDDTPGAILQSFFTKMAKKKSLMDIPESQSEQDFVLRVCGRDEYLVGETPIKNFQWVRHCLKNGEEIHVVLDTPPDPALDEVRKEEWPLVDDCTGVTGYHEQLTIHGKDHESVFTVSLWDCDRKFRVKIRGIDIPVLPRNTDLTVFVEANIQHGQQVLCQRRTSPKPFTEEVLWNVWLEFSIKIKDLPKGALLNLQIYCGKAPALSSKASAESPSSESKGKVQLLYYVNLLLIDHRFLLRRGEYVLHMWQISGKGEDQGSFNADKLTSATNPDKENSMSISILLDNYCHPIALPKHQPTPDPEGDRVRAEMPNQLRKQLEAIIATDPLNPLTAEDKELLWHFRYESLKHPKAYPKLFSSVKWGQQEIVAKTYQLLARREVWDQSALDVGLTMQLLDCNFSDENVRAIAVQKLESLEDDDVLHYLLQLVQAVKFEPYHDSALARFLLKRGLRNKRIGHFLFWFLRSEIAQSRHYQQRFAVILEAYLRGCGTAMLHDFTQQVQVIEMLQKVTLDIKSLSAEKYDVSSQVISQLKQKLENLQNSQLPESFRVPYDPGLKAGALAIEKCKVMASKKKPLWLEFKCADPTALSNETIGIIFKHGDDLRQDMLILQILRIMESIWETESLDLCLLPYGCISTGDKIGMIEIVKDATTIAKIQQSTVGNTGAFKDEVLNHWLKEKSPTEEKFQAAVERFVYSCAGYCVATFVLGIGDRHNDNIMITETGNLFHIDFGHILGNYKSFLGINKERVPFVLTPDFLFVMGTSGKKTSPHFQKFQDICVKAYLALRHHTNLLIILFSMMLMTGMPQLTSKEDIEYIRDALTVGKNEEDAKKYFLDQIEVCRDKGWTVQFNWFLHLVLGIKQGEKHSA
Procedure, shortened: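 Homogeneous endpoint format using recombinant enzymes; ADP measured by far-red FP immunoassay after 80 min reaction and 60 min detection, both at room temperature.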

p110β/p85α = p110β/p85α (Homo sapiens, UniProt P42338); test: Transcreener KINASE Assay, kinase inhibition of p110β/p85α; details: for PI3Kβ IH % @ 1 uM: 1 uM test compound; for IC50: read-out: PI3Kβ IC50
p110β/p85α, sequence (P42338 whole entry): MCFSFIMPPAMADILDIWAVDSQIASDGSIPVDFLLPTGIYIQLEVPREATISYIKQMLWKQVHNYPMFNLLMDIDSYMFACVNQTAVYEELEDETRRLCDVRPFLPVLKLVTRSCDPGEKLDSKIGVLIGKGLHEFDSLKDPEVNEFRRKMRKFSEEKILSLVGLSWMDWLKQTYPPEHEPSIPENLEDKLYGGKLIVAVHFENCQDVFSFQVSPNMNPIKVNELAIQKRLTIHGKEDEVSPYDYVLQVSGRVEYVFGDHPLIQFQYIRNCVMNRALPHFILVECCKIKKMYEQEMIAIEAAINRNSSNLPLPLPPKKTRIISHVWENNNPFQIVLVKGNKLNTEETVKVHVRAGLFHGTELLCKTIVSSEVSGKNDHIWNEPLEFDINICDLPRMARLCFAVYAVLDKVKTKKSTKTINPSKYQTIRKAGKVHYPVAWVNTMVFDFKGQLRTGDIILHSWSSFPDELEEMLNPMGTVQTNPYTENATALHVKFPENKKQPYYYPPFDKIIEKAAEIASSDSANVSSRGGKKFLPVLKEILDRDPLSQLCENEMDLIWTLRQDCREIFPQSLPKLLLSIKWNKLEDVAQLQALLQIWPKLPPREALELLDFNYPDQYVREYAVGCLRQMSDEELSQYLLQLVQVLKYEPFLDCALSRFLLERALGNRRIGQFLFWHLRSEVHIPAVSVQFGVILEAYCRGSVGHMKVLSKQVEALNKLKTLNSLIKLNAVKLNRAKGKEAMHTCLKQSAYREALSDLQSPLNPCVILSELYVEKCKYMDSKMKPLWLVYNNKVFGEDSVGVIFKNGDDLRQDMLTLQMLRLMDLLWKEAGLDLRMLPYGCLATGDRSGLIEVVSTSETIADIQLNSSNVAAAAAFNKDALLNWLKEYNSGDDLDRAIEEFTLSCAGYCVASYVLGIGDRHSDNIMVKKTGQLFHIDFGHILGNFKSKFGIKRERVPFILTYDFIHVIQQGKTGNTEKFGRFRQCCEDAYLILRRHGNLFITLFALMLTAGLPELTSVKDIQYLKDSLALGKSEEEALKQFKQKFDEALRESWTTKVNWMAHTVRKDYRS
p110β/p85α, sequence (P27986 2-724 partner): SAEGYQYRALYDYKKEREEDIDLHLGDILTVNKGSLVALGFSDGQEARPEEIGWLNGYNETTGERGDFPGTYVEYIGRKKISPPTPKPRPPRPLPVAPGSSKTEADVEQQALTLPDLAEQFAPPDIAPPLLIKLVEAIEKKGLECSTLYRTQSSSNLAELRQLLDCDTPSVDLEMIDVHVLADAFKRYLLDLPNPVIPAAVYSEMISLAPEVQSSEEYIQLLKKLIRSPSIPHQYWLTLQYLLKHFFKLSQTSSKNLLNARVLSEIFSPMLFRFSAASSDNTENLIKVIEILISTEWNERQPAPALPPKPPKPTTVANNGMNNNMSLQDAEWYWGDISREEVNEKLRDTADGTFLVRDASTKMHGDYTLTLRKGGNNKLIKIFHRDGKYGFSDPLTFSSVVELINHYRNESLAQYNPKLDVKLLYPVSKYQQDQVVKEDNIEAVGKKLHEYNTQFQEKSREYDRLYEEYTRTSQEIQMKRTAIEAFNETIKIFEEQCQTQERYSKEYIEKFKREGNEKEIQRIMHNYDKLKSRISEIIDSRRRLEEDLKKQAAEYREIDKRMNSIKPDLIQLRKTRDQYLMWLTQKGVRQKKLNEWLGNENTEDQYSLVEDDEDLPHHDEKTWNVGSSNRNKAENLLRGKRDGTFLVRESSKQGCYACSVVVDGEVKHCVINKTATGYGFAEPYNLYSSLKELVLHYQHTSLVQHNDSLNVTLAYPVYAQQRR
Procedure, shortened: as §1

p110δ/p85α, sequence (O00329 whole entry): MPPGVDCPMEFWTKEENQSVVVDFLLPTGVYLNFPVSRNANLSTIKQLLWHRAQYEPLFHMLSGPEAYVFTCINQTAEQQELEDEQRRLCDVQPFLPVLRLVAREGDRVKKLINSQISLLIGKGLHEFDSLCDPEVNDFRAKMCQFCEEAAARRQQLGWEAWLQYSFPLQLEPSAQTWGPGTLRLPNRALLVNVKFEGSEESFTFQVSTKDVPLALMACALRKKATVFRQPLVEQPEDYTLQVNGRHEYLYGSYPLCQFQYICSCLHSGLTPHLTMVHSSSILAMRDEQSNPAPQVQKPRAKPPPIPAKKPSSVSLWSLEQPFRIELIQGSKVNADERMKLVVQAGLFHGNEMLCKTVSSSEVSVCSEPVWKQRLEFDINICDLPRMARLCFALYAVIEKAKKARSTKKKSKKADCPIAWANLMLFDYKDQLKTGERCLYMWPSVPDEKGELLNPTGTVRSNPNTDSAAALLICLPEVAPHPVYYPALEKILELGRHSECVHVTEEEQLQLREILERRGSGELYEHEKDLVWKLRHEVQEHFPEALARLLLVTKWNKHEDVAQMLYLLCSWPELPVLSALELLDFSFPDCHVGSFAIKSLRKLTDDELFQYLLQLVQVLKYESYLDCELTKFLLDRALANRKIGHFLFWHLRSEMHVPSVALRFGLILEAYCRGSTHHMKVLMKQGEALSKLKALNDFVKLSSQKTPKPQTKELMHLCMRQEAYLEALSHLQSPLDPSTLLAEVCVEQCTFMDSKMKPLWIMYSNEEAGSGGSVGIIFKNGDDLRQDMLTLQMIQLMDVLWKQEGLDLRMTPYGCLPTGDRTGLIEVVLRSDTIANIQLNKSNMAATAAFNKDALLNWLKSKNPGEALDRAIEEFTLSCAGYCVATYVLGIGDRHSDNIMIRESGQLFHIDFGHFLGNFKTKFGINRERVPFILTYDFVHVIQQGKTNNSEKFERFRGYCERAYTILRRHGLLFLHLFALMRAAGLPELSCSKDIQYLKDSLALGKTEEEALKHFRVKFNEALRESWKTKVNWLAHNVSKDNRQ
p110δ/p85α, sequence (P27986 whole entry partner): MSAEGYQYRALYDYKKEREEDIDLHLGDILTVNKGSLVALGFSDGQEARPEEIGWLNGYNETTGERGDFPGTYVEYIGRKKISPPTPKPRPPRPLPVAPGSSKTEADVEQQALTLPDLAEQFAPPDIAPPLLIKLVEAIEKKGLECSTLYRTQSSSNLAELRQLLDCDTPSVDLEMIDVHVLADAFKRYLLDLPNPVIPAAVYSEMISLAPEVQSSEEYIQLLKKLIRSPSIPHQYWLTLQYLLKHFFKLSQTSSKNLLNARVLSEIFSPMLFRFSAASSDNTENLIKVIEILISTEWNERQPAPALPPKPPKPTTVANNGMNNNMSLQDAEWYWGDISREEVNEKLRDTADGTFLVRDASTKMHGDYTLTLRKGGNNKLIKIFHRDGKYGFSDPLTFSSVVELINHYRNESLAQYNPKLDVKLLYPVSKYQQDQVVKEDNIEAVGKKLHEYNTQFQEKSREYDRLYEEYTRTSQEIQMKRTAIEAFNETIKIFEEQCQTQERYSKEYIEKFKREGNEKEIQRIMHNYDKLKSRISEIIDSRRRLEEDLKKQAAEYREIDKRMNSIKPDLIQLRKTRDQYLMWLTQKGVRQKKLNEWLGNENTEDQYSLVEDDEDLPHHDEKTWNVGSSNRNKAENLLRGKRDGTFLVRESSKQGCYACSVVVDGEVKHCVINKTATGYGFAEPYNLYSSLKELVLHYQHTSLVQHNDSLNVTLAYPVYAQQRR

Structure (SMILES)	PI3Kδ IH % @ 1 uM (p110δ/p85α) [%]	IC50 (p110δ/p85α) [nM]	PI3Kγ IH % @ 1 uM (p110γ) [%]	IC50 (p110γ) [nM]	PI3Kβ IH % @ 1 uM (p110β/p85α) [%]	IC50 (p110β/p85α) [nM]
CC(Nc1ncnc(N)c1C#N)c1cc2ccc(Cl)n2c(=O)n1-c1ccccc1 (stereo not drawn) [Compound 125]	>100	1	94.0	3	95.7	6
CC(Nc1ncnc2[nH]cc(C#N)c12)c1cn2ccc(Cl)c2c(=O)n1-c1cccc(F)c1 (stereo not drawn) [Compound 76]	98.8	–	93.9	–	82.0	104
CC(Nc1ncnc(N)c1C#N)c1cc2cccn2c(=O)n1-c1ccccc1 (stereo not drawn) [Compound 120]	>100	–	85.9	295	74.7	237
O=c1c2c(Cl)ccn2nc([C@@H]2CCCN2c2nc(F)nc3[nH]cnc23)n1-c1ccccc1 [Compound 146]	>100	1	97.3	9	77.9	120
CC(Nc1ncnc2[nH]cnc12)c1cc2ncc(Cl)n2c(=O)n1-c1ccccc1 (stereo not drawn) [Compound 115, 7-(1-(9H-purin-6-ylamino)ethyl)-3-chloro-6-phenylimidazo[1,2-c]pyrimidin-5(6H)-one]	>100	2	91.7	3	80.2	143
CNC(=O)c1c[nH]c2ncnc(N3CCC[C@H]3c3nn4ccc(Cl)c4c(=O)n3-c3ccccc3)c12 [Compound 96]	97.3	24	94.3	71	73.4	169
CC(=O)c1c[nH]c2ncnc(N3CCC[C@H]3c3nn4ccc(Cl)c4c(=O)n3-c3ccccc3)c12 [Compound 211]	98.4	0.5	92.2	–	88.3	51
O=C(c1c[nH]c2ncnc(N3CCC[C@H]3c3nn4ccc(Cl)c4c(=O)n3-c3ccccc3)c12)N1CCOCC1 [Compound 164]	62.3	–	64.9	–	22.9	–
CC(=O)c1c[nH]c2ncnc(N3CCC[C@H]3c3nn4ccc(Cl)c4c(=O)n3-c3cccc(F)c3)c12 [Compound 210]	98.6	2	92.0	–	69.1	191
COc1ccc(-c2n[nH]c3ncnc(N4CCC[C@H]4c4nn5ccc(Cl)c5c(=O)n4-c4ccccc4)c23)cn1 [Compound 109]	99.8	4	98.3	192	61.0	–
Nc1ncc(-c2n[nH]c3ncnc(N4CCC[C@H]4c4nn5ccc(Cl)c5c(=O)n4-c4ccccc4)c23)cn1 [Compound 166]	97.2	1	>100	2	>100	17
O=c1c2c(C3CC3)ccn2nc([C@@H]2CCCN2c2ncnc3[nH]cnc23)n1-c1ccccc1 [Compound 51]	80.1	343	89.1	293	−7.4	–
N#Cc1c[nH]c2ncnc(N3CCC[C@H]3c3nn4ccc(C(N)=O)c4c(=O)n3-c3ccccc3)c12 [Compound 140]	>100	51	82.3	116	15.0	–
COc1ncc(-c2n[nH]c3ncnc(N4CC[C@H]4c4nn5ccc(Cl)c5c(=O)n4-c4ccccc4)c23)cn1 [Compound 172]	99.6	2	79.8	297	38.2	–

The remaining lines, values ahead:

PI3Kδ IH % @ 1 uM (p110δ/p85α) [%]	IC50 (p110δ/p85α) [nM]	PI3Kγ IH % @ 1 uM (p110γ) [%]	IC50 (p110γ) [nM]	PI3Kβ IH % @ 1 uM (p110β/p85α) [%]	IC50 (p110β/p85α) [nM]	Structure (SMILES)
99.1	22	95.8	45	33.4	–	Nc1nc2c(c(N3C[C@@H](F)C[C@H]3c3nn4ccc(F)c4c(=O)n3-c3ccccc3)n1)C(=O)CCN2 [Compound 250]
–	1	–	4	–	39	CC(Nc1nc(N)nc2c1C(=O)CCN2)c1cc2ncc(Cl)n2c(=O)n1-c1ccccc1 (stereo not drawn) [Compound 290]
87.2	220	>100	179	34.5	–	COc1nc(N)nc(N2CC[C@H]2c2nn3ccc(Cl)c3c(=O)n2-c2ccccc2)c1C#N [Compound 378, (S)-2-amino-4-(2-(5-chloro-4-oxo-3-phenyl-3,4-dihydropyrrolo[2,1-f][1,2,4]triazin-2-yl)azetidin-1-yl)-6-methoxypyrimidine-5-carbonitrile]
>100	–	>100	–	>100	–	C[C@H]1CCN(c2ncnc3[nH]cc(C#N)c23)C1c1nn2ccc(Cl)c2c(=O)n1-c1ccccc1 (stereo partly drawn) [Compound 233]
>100	4	>100	73	72.6	304	N#Cc1c[nH]c2ncnc(N3CCC[C@H]3c3nn4ccc(Cl)c4c(=O)n3CCN3CCOCC3)c12 [Compound 255]
95.2	11	95.8	17	20.3	–	CC(=O)c1cnc(N)nc1N1CC[C@H]1c1nn2ccc(Cl)c2c(=O)n1-c1cccc(F)c1 [Compound 440]
99.7	4	95.8	21	94.5	93	CC(=O)c1cnc(N)nc1NC(C)c1cc2ncc(Cl)n2c(=O)n1-c1ccccc1 (stereo not drawn) [Compound 288]
99.4	12	>100	21	6.1	–	CC(=O)c1cnc(N)nc1N1CC[C@H]1c1nn2ccc(F)c2c(=O)n1-c1ccccc1 [Compound 323]
>100	4	>100	37	79.0	257	CC(Nc1ncnc2[nH]cc(F)c12)c1cc2ncc(Cl)n2c(=O)n1-c1ccccc1 (stereo not drawn) [Compound 285]
94.9	–	>100	–	>100	–	CC(Nc1nc(N)nc2c1C(=O)CCN2)c1cn2ccc(F)c2c(=O)n1-c1ccccc1 (single isomer, unassigned) [Compound 407]
92.8	52	69.0	553	45.1	–	O=c1c2c(Cl)ccn2nc([C@@H]2CCCN2c2ncnc3[nH]cnc23)n1CCN1CCOCC1 [Compound 253]
99.5	1	97.0	11	81.4	247	CC(Nc1ncnc2[nH]cc(C#N)c12)c1cn2ccc(Cl)c2c(=O)n1-c1cccc(F)c1 (stereo not drawn) [Compound 277]
>100	12	70.4	81	22.2	–	O=C1C[C@@H](c2nn3ccc(F)c3c(=O)n2-c2ccccc2)N(c2ncnc3[nH]cnc23)C1 [Compound 400]
96.8	10	98.9	19	46.5	–	Nc1nc2c(c(N3CCC[C@H]3c3nn4ccc(Cl)c4c(=O)n3-c3ccccc3)n1)C(=O)CCN2 [Compound 242]
95.4	7	87.9	46	32.7	–	C[S+]([O-])c1c[nH]c2ncnc(N3CCC[C@H]3c3nn4ccc(Cl)c4c(=O)n3-c3ccccn3)c12 (single isomer, unassigned) [Compound 389]
>100	1	>100	5	96.3	54	N#Cc1c[nH]c2ncnc(N3C[C@@H](F)C[C@H]3c3nn4ccc(F)c4c(=O)n3-c3ccccc3)c12 [Compound 225]
7.1	–	50.7	–	−23.5	–	Nc1ncc(C(=O)C2CC2)c(N2CC[C@H]2c2nn3ccc(Cl)c3c(=O)n2-c2ccccc2)n1 [Compound 326]
>100	1	>100	3	>100	31	N#Cc1c[nH]c2ncnc(N3C[C@@H](O)C[C@H]3c3nn4ccc(Cl)c4c(=O)n3-c3cccc(F)c3)c12 [Compound 261]
99.8	4	92.7	30	58.4	–	C[C@H]1CN(c2ncnc3[nH]cc(C#N)c23)[C@@H]1c1nn2ccc(F)c2c(=O)n1-c1ccccc1 [Compound 244]
99.1	2	>100	17	88.2	56	N#Cc1c[nH]c2ncnc(N3CCCC3c3cn4ccc(Cl)c4c(=O)n3-c3ccccc3)c12 (stereo not drawn) [Compound 364]
